Here are results for three molecules from publication PMC3600082 (Journal of medicinal chemistry, 2013).

The test system of assay [1] is Gag CA-SP1 cleavage in wild type NL4-3. The following applies: virus produced by 293T cells in presence of compound; Western blot. (In western blotting, separated proteins are transferred to a membrane and probed.)
Assay [2] has as its system Gag CA-SP1 cleavage in NL4-3/V370A. Put plainly: Anti-HIV-1 maturation assay. The format is cell-based. The following applies: virus produced by 293T cells in presence of compound; Western blot.
Assay [3] concerns BVM-R HIV-1 variants (V370Δ, V370A, V362I, T371Δ). Put plainly: Multi-cycle viral replication in MT4 cell assay, panel of BVM-R variants. The following applies: for sensitivity of BVM-R viruses to the compound: BVM-R variants. The format is cell-based.
For assay [4], the system named is HIV-1 NL4-3 Env-mediated cell-cell fusion. Put plainly: Fusion assay. The format is cell-based. The following applies: COS cells expressing Env mixed with TZM-bl cells; luciferase.
Assay [5] concerns Gag CA-SP1 cleavage in NL4-3/V362I. Put plainly: Anti-HIV-1 maturation assay. The following applies: virus produced by 293T cells in presence of compound; Western blot. The format is cell-based.
Assay [6] relates to NL4-3/V370A. Kind of assay: Multi-cycle viral replication in MT4 cell assay. The format is cell-based, HIV-1. The following applies: relative to compound 1.
In assay [7] the test system is HIV-1 NL4-3. The following applies: relative to compound 1; cited from earlier work.

“Also recorded” adds a separate entry of the source.

On to `C=C(C)[C@@H]1CC[C@]2(C(=O)O)CC[C@]3(C)[C@H](CC[C@@H]4[C@@]5(C)CC[C@H](OC(=O)CC(C)(C)C(=O)O)C(C)(C)[C@@H]5CC[C@]43C)[C@@H]12` [Compound 1, 3-O-(3’,3’-dimethylsuccinyl)-betulinic acid], for which, in assay [1], the “inhibition of Gag CA-SP1 cleavage (p25 accumulation), wild type NL4-3” value was “interfered with the cleavage of Gag CA-SP1”. Further, the “inhibition of Gag CA-SP1 cleavage (p25 accumulation), NL4-3/V370A” value in assay [2] was “did not inhibit the cleavage of Gag CA-SP1”. In addition, in assay [3], the “sensitivity of BVM-R viruses to the compound” value (“sensitivity of BVM-R viruses” below) was “not sensitive”. In assay [4], the “inhibition of HIV-1 entry / Env-mediated cell-cell fusion” value was “do not inhibit HIV-1 entry”.
With `C=C(C)[C@@H]1CC[C@]2(C(=O)NCCCCCCCCC(=O)N[C@@H](CCC(N)=O)C(=O)OC)CC[C@]3(C)[C@H](CC[C@@H]4[C@@]5(C)CC[C@H](OC(=O)CC(C)(C)C(=O)O)C(C)(C)[C@@H]5CC[C@]43C)[C@@H]12` [Compound 6, Methyl N-[N’-[3β-O-(3’,3’-dimethylsuccinyl)-betulinic acid-28-oyl]-9-aminononanoyl]-L-glutaminate], the “inhibition of Gag CA-SP1 cleavage (p25 accumulation), NL4-3/V362I” value in assay [5] is reported as “accumulation of p25 was even more pronounced”. Moreover, the “inhibition of Gag CA-SP1 cleavage (p25 accumulation), NL4-3/V370A” value in assay [2] is recorded as “resulted in accumulation of CA-SP1 (p25)”. Besides, the “sensitivity of BVM-R viruses” value in assay [3] was “sensitive”. Also, in assay [3] (relative to compound 1), the “fold more potent than 1 against four BVM-R viruses” value was “at least 20 fold”. The “inhibition of HIV-1 entry / Env-mediated cell-cell fusion” value in assay [4] is on record as “do not inhibit HIV-1 entry; also recorded: did not inhibit”. Besides, the “fold more potent than 1 against the replication of NL4-3/V370A” value in assay [6] is given as “at least 20 fold”.
For the molecule `C=C(C)[C@@H]1CC[C@]2(C(=O)N3CCN(CCCCC(=O)O)CC3)CC[C@]3(C)[C@H](CC[C@@H]4[C@@]5(C)CC[C@H](OC(=O)CC(C)(C)C(=O)O)C(C)(C)[C@@H]5CC[C@]43C)[C@@H]12` [Compound 30, N-[3β-O-(3′,3′-dimethylsuccinyl)lup-20(29)-en-28-oyl]-5-piperazinepentanoic acid], the “sensitivity of BVM-R viruses” value in assay [3] was “ineffective; also recorded: not effective”. Further, the “increase in anti-HIV-1 maturation activity” value in assay [7] is “greater than 10 fold”.
